For one series, the system named is PBMCs. Type of series: cell-based, human. The procedure:
For the T reg assays, PBMCs were thawed according standard procedure, labeled with carboxyfluorescein succinimidyl ester (CFSE), and rested overnight in 96 well culture plate prior to use in in vitro assays. To evaluate the dose response of FV621 on the viability, cells were incubated with FV621 for 2, 3, 5 and 7 days in culture and live cells evaluated by flow cytometry using a live-dead viability dye and by counting in a cellometer (Nexcelom) using trypan blue exclusion. […]
To rule out the possibility that the effect of FV621 was related to toxic effects of the peptide, which might simulate a suppressive effect in vitro, we evaluated the viability of cells in culture with FV621 using two different methods. Cells were cultured in the presence of FV621 in a 96 well plate for 2, 3, 5 and 7 days after which cells were collected and stained with live-dead viability dye and analyzed by flow cytometry (data not shown) and by trypan blue exclusion and counting with a cellometer (Nexcelom). The absolute number of live cells that was counted at days 2, 3, 5 and 7 after stimulation with different doses of FV621 Tregitope was similar by flow cytometry.

The subject of series [1] is HLA-DRB1*0101, *0301, *0401, *0701, *1101, *1301 and *1501 alleles. The experiment in a line: In vitro HLA DRB1 binding assay, panel of seven alleles. More on the design: species or system human. Particulars: for breadth of binding to HLA DRB1 alleles: seven alleles. As for the experimental part: The six FV peptides were tested for in vitro binding to HLA-DRB1*0101, *0301, *0401, *0701, *1101, *1301 and *1501 alleles.

Series [2] relates to panel of five common Class II HLA alleles: HLA-DRB1*0101, HLA-DRB1*0301, HLA-DRB1*0701, HLA-DRB1*1101, and HLA-DRB1*1501. Briefly: Soluble HLA competition binding assay, panel of five alleles. On the set-up: species or system human. The procedure:
HLA Binding Assay. Binding activity was analyzed atEpiVax (Providence, R.I.). The binding assay used (Steere A C et al., (2006), J Exp Med, 2003(4):961-71) yielded an indirect measure of peptide-MHC affinity. Soluble HLA molecules were loaded onto a 96-well plate with the unlabeled experimental Tregitopes and labeled control peptide. Once the binding mixture reached steady equilibrium (at 24 hours), the HLA-Tregitope complexes were captured on an ELISA plate coated with anti-human DR antibody and detected with a Europium-linked probe for the label (PerkinElmer, Waltham, Mass.). Time-resolved fluorescence measuring bound labeled control peptide is assessed by a SpectraMax® M5 unit (Spectramax, Radnor, Pa.). Binding of experimental Tregitopes was expressed as the percent inhibition of the labeled control peptide (experimental fluorescence/control fluorescence multiplied by 100). […]
CD4+ effector memory T cells contained within PBMC cell populations can be induced to proliferate in response to stimulation with known T cell epitopes. […] Binding of experimental Tregitopes is expressed as the percent inhibition of the labeled control peptide (experimental fluorescence/control fluorescence multiplied by 100). […]

Series [3] deals with CD4+ T cells in PBMCs from healthy donors. Briefly: Tetanus Toxoid Bystander Suppression Assay (TTBSA). In kind it is cell-based, human. As to conditions: for inhibition of the CD4+ T memory response / T effector proliferation in the TTBSA: PBMC from three HLA-diverse donors.
Series [4] deals with CD4+ effector memory T cells. The experiment in a line: Suppression of Tetanus Toxoid stimulated CD4+ effector T cells in PBMC. Type of series: cell-based, human. More on the design: CD4+ T cell activation reduced by: dose or concentration left out as unconfirmed. The procedure:
Previously harvested and frozen PBMC were thawed and suspended in conditioned chRPMI (3.3×10^6 cells/mL) by conventional means. Cells were stained with CFSE (Cat #: 65-0850-84, Affymetrix, Santa Clara, Calif.) and plated at 300,000 cells per well. Plates were incubated overnight (37° C. in 5% CO2). […] Previous titration experiments performed at EpiVax (EpiVax, Providence, R.I.) have established that stimulation with 0.5 μg/ml Tetanus Toxoid (TT) (Astarte Biologics, Bothell, Wash.) elicits a measurable CD4+ effector memory T cells response in PBMC drawn from healthy control donors (Rhode Island Blood Center, Providence, R.I.). Tetanus Toxoid stock (100 μg/mL) (Astarte Biologics, Bothell, Wash.) was diluted in conditioned chRPMI yielding a working concentration of 1 ug/mL. […] All plates were then incubated for six additional days. On assay day five, 100 μL of supernatant was removed from each well and replaced with freshly conditioned chRPMI.
On assay day seven, cells were removed from incubation. Cells were labeled for live/dead discrimination, for surface markers CD127, CCR7, CD4, CD45RA, and CD25 and for intracellular FoxP3. Stained cells were further prepared for FACS analysis by conventional means. Cells were first gated to eliminate aggregates and dead cells. Live cells were gated for CD4 T cells and all subsequent analysis was done on this population. The activated Teffector population was identified as the CD4+/CD25-high/FoxP3-intermediate (CD4+/CD25^1/FoxP3int) (FIG. 8A).
Proliferation of CD4+/CD25-high (CD4^+/CD25^hi) T cells was estimated from the dilution of the CFSE stain (Cat #: 65-0850-84, Affymetrix, Santa Clara, Calif.) and % proliferation determined by the CFSE-low (CFSEL^lo) population (FIG. 8B).

Entries after “also recorded” stand apart in the source; their conditions may differ.

The text below walks through data of patent US20230279072A1, “REGULATORY T CELL EPITOPES” (EpiVax Inc., priority 2020, published 2023).

For the compound `CC[C@H](C)[C@H](NC(C)=O)C(=O)N[C@@H](CC(C)C)C(=O)N[C@H](C(=O)N[C@H](C(=O)N[C@@H](Cc1c[nH]cn1)C(=O)N[C@@H](Cc1ccccc1)C(=O)N[C@H](C(=O)NCC(=O)N[C@@H](Cc1c[nH]cn1)C(=O)N[C@@H](CO)C(=O)N[C@@H](Cc1ccccc1)C(=O)N[C@H](C(=O)N[C@@H](Cc1ccc(O)cc1)C(=O)NCC(=O)N[C@@H](CCCCN)C(N)=O)[C@@H](C)CC)[C@@H](C)O)[C@@H](C)CC)[C@@H](C)O` [SEQ ID NO: 1], the “absolute number of live cells by flow cytometry” value in the series on PBMCs (days 2, 3, 5 and 7, different doses) is listed as “similar”. The “decreased viability by trypan blue exclusion” value in the series with PBMCs (highest dose) was 10-15%.
For `CC(=O)N[C@@H](Cc1ccccc1)C(=O)N[C@@H](C)C(=O)N[C@H](C(=O)N[C@@H](Cc1ccccc1)C(=O)N[C@@H](CC(=O)O)C(=O)N[C@@H](CCC(=O)O)C(=O)N[C@@H](CC(N)=O)C(=O)N[C@@H](CCCCN)C(=O)N[C@@H](CO)C(=O)N[C@@H](Cc1c[nH]c2ccccc12)C(=O)N[C@@H](Cc1ccc(O)cc1)C(=O)N[C@@H](CC(C)C)C(=O)N[C@@H](CCC(=O)O)C(=O)N[C@@H](CC(=O)O)C(=O)N[C@@H](CC(N)=O)C(N)=O)C(C)C` [SEQ ID NO: 4], the “breadth of binding to HLA DRB1 alleles” value in series [1] (listed as FV548) is “somewhat more restricted in the breadth of binding; also recorded: more limited binding to HLA DR”. The HLA binding profile result in series [2] was “highly-restricted HLA binding profiles”. Further, the “inhibition of the CD4+ T memory response / T effector proliferation in the TTBSA” value in series [3] was “did not inhibit”.
Take `CC[C@H](C)[C@H](NC(=O)[C@H](CC(N)=O)NC(=O)[C@H](CO)NC(=O)[C@H](CCC(=O)O)NC(C)=O)C(=O)N[C@@H](CCSC)C(=O)N[C@@H](CO)C(=O)N[C@H](C(=O)N[C@H](C(=O)N[C@@H](CC(N)=O)C(=O)NCC(=O)N[C@@H](Cc1ccc(O)cc1)C(=O)N[C@H](C(=O)N1CCC[C@H]1C(=O)N[C@@H](CCC(=O)O)C(=O)N[C@@H](CO)C(N)=O)C(C)C)[C@@H](C)CC)[C@@H](C)O` [SEQ ID NO: 5]: the “breadth of binding to HLA DRB1 alleles” value in series [1] (listed as FV582) is “somewhat more restricted in the breadth of binding; also recorded: more limited binding to HLA DR”. Further, the “inhibition of the CD4+ T memory response / T effector proliferation in the TTBSA” value in series [3] is recorded as “did not inhibit”.
`CC[C@H](C)[C@H](NC(=O)[C@H](CC(C)C)NC(=O)[C@H](CC(C)C)NC(=O)[C@@H]1CCCN1C(=O)CNC(=O)[C@@H](NC(=O)[C@H](CC(C)C)NC(=O)CNC(=O)[C@H](CO)NC(=O)[C@H](Cc1c[nH]cn1)NC(=O)[C@@H](NC(=O)[C@H](CC(=O)O)NC(=O)[C@H](CCCCN)NC(=O)[C@H](CCC(=O)O)NC(C)=O)[C@@H](C)CC)[C@@H](C)CC)C(N)=O` [SEQ ID NO: 6]: the “breadth of binding to HLA DRB1 alleles” value in series [1] (listed as FV1737) is “somewhat more restricted in the breadth of binding; also recorded: more limited binding to HLA DR”. Further, the HLA binding profile result in series [2] is “highly-restricted HLA binding profiles”. Further, the “inhibition of the CD4+ T memory response / T effector proliferation in the TTBSA” value in series [3] was “did not inhibit”.
In the case of `CC[C@H](C)[C@H](NC(=O)[C@H](C)NC(=O)[C@H](Cc1c[nH]cn1)NC(=O)[C@H](Cc1ccccc1)NC(=O)[C@H](CCC(=O)O)NC(=O)[C@H](Cc1c[nH]cn1)NC(=O)[C@H](CO)NC(C)=O)C(=O)N[C@@H](CC(N)=O)C(=O)NCC(=O)N[C@@H](CCSC)C(=O)N[C@H](C(=O)N[C@@H](Cc1ccc(O)cc1)C(=O)N[C@@H](CO)C(=O)N[C@@H](CC(C)C)C(=O)N1CCC[C@H]1C(N)=O)[C@@H](C)CC` [SEQ ID NO: 7], the “breadth of binding to HLA DRB1 alleles” value in series [1] is on record as “bind to multiple HLA DRB1 alleles”. Besides, the “inhibition of the CD4+ T memory response / T effector proliferation in the TTBSA” value in series [3] is on record as “did not inhibit”.
Consider “G628H: FV621 with point mutation at TCR facing position G628H (glycine changed to histidine) (ILTIHFTHHSFIYGK)”, for which the “binding affinity to HLA DR alleles (in words)” value in series [1] (across the alleles tested) was “identical to FV621”. Besides, the “suppressive capacity on TT-induced memory CD4 T cell proliferation relative to FV621” value in series [3] (point-mutated FV621 peptides, data not shown) is recorded as “significantly diminished suppressive capacity”.
Turning to “IHSIHFSGHVFTVRK (listed as Homo sapiens) [SEQ ID NO: 2]”, in series [4] (5, 10, 15, and 20 ug/ml, two donors), the “proliferation of CD4+ T cells and activated T effector T cells” value is “suppressed proliferation of CD4+ T cells and activated T effector T cells in a dose dependent manner”. Besides, the “CD4+ T cell activation reduced by” value in series [4] (Donor 096, with TT) came out at 70%; in series [4] (Donor 120, with TT), 50%.
